Data: PubChem BioAssay (NCI)
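48-hour exposure; five concentrations; linearly interpolated endpoints. GI50: concentration for 50% inhibition of growth. TGI: concentration producing complete growth inhibition.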

Key:
Test in all cases: NCI anticancer screen, dose series, 48 h
786-0 renal = test system: 786-0 renal
A498 renal = test system: A498 renal
A549 NSCLC = test system: A549 NSCLC
ACHN renal = test system: ACHN renal
CAKI-1 renal = test system: CAKI-1 renal
CCRF-CEM leukemia = test system: CCRF-CEM leukemia
COLO 205 colon = test system: COLO 205 colon
DLD-1 colon = test system: DLD-1 colon
DMS 273 small cell lung = test system: DMS 273 small cell lung
EKVX NSCLC = test system: EKVX NSCLC
HCC-2998 colon = test system: HCC-2998 colon
HCT-116 colon = test system: HCT-116 colon
HCT-15 colon = test system: HCT-15 colon
HL-60(TB) leukemia = test system: HL-60(TB) leukemia
HOP-18 NSCLC = test system: HOP-18 NSCLC
HOP-62 NSCLC = test system: HOP-62 NSCLC
HT29 colon = test system: HT29 colon
IGROV1 ovarian = test system: IGROV1 ovarian
K-562 leukemia = test system: K-562 leukemia
KM20L2 colon = test system: KM20L2 colon
LOX IMVI melanoma = test system: LOX IMVI melanoma
LXFL 529 NSCLC = test system: LXFL 529 NSCLC
M14 melanoma = test system: M14 melanoma
M19-MEL melanoma = test system: M19-MEL melanoma
MOLT-4 leukemia = test system: MOLT-4 leukemia
NCI-H23 lung = test system: NCI-H23 lung
NCI-H460 lung = test system: NCI-H460 lung
OVCAR-3 ovarian = test system: OVCAR-3 ovarian
OVCAR-4 ovarian = test system: OVCAR-4 ovarian
OVCAR-8 ovarian = test system: OVCAR-8 ovarian
RPMI-8226 leukemia = test system: RPMI-8226 leukemia
RXF 393 renal = test system: RXF 393 renal
SF-295 CNS = test system: SF-295 CNS
SF-539 CNS = test system: SF-539 CNS
SK-MEL-28 melanoma = test system: SK-MEL-28 melanoma
SK-MEL-5 melanoma = test system: SK-MEL-5 melanoma
SK-OV-3 ovarian = test system: SK-OV-3 ovarian
SN12C renal = test system: SN12C renal
SNB-19 CNS = test system: SNB-19 CNS
SNB-75 CNS = test system: SNB-75 CNS
SW-620 colon = test system: SW-620 colon
TK-10 renal = test system: TK-10 renal
U251 CNS = test system: U251 CNS
UACC-257 melanoma = test system: UACC-257 melanoma
UACC-62 melanoma = test system: UACC-62 melanoma
XF 498 CNS = test system: XF 498 CNS
DMS 114 small cell lung = test system: DMS 114 small cell lung
HOP-92 NSCLC = test system: HOP-92 NSCLC
KM12 colon = test system: KM12 colon
MALME-3M melanoma = test system: MALME-3M melanoma
NCI-H226 lung = test system: NCI-H226 lung
NCI-H522 lung = test system: NCI-H522 lung
SF-268 CNS = test system: SF-268 CNS
SK-MEL-2 melanoma = test system: SK-MEL-2 melanoma

## CC(C)(C)c1cc(COc2c3sc(=S)sc3c(OCc3cc(C(C)(C)C)cc(C(C)(C)C)c3)c3sc(=S)sc23)cc(C(C)(C)C)c1
786-0 renal
  TGI: > 100 µM
A498 renal
  TGI: > 100 µM
A549 NSCLC
  TGI: > 100 µM
ACHN renal
  TGI: > 100 µM
CAKI-1 renal
  TGI: > 100 µM
CCRF-CEM leukemia
  TGI: > 100 µM
COLO 205 colon
  TGI: > 100 µM
DLD-1 colon
  TGI: > 100 µM
DMS 273 small cell lung
  TGI: > 100 µM
EKVX NSCLC
  TGI: > 100 µM
HCC-2998 colon
  TGI: > 100 µM
HCT-116 colon
  TGI: > 100 µM
HCT-15 colon
  TGI: > 100 µM
HL-60(TB) leukemia
  TGI: > 100 µM
HOP-18 NSCLC
  TGI: > 100 µM
HOP-62 NSCLC
  TGI: > 100 µM
HT29 colon
  TGI: > 100 µM
IGROV1 ovarian
  TGI: > 100 µM
K-562 leukemia
  TGI: > 100 µM
KM20L2 colon
  TGI: > 100 µM
LOX IMVI melanoma
  TGI: > 100 µM
LXFL 529 NSCLC
  TGI: > 100 µM
M14 melanoma
  TGI: > 100 µM
M19-MEL melanoma
  TGI: > 100 µM
MOLT-4 leukemia
  TGI: > 100 µM
NCI-H23 lung
  TGI: > 100 µM
NCI-H460 lung
  TGI: > 100 µM
OVCAR-3 ovarian
  TGI: > 100 µM
OVCAR-4 ovarian
  TGI: > 100 µM
OVCAR-8 ovarian
  TGI: > 100 µM
RPMI-8226 leukemia
  TGI: > 100 µM
RXF 393 renal
  TGI: > 100 µM
SF-295 CNS
  TGI: > 100 µM
SF-539 CNS
  TGI: > 100 µM
SK-MEL-28 melanoma
  TGI: > 100 µM
SK-MEL-5 melanoma
  TGI: > 100 µM
SK-OV-3 ovarian
  TGI: > 100 µM
SN12C renal
  TGI: > 100 µM
SNB-19 CNS
  TGI: > 100 µM
SNB-75 CNS
  TGI: > 100 µM
SW-620 colon
  TGI: > 100 µM
TK-10 renal
  TGI: > 100 µM
U251 CNS
  TGI: > 100 µM
UACC-257 melanoma
  TGI: > 100 µM
UACC-62 melanoma
  TGI: > 100 µM
XF 498 CNS
  TGI: > 100 µM

## COc1cccc(C=O)c1[O-].COc1cccc(C=O)c1[O-].[Cu+2]
786-0 renal
  TGI: 31.9 µM
A498 renal
  TGI: 39.4 µM
A549 NSCLC
  TGI: 55 µM
ACHN renal
  TGI: 30.5 µM
CAKI-1 renal
  GI50: 2.83 µM
  TGI: 10.3 µM
CCRF-CEM leukemia
  TGI: 28.3 µM
COLO 205 colon
  TGI: 20.8 µM
DLD-1 colon
  TGI: 23.7 µM
DMS 114 small cell lung
  TGI: 1.2 µM
DMS 273 small cell lung
  TGI: 36.2 µM
EKVX NSCLC
  TGI: 77.7 µM
HCC-2998 colon
  TGI: 29 µM
HCT-116 colon
  TGI: 30.1 µM
HCT-15 colon
  TGI: 19.8 µM
HL-60(TB) leukemia
  GI50: 21.7 µM
  TGI: 46 µM
HOP-18 NSCLC
  TGI: 26.8 µM
HOP-62 NSCLC
  TGI: 31.7 µM
HOP-92 NSCLC
  TGI: 28 µM
HT29 colon
  TGI: 46.8 µM
K-562 leukemia
  TGI: 17.9 µM
KM12 colon
  TGI: 30.7 µM
KM20L2 colon
  TGI: 32.3 µM
LOX IMVI melanoma
  TGI: 37.6 µM
LXFL 529 NSCLC
  TGI: 16.5 µM
M14 melanoma
  TGI: 31.4 µM
MALME-3M melanoma
  TGI: 20.1 µM
MOLT-4 leukemia
  TGI: 18.6 µM
NCI-H226 lung
  TGI: 68.2 µM
NCI-H460 lung
  TGI: 73.8 µM
NCI-H522 lung
  TGI: 19.3 µM
OVCAR-3 ovarian
  TGI: 21 µM
OVCAR-4 ovarian
  TGI: 6.85 µM
OVCAR-8 ovarian
  TGI: 44.7 µM
RPMI-8226 leukemia
  TGI: 41.4 µM
SF-268 CNS
  TGI: 35.3 µM
SF-295 CNS
  TGI: > 100 µM
SF-539 CNS
  TGI: 41.4 µM
SK-MEL-2 melanoma
  TGI: 12.8 µM
SK-MEL-28 melanoma
  TGI: 28.5 µM
SK-MEL-5 melanoma
  TGI: 6.27 µM
SK-OV-3 ovarian
  TGI: 31.8 µM
SN12C renal
  TGI: 34 µM
SNB-19 CNS
  TGI: 31.2 µM
SNB-75 CNS
  TGI: 35.4 µM
SW-620 colon
  TGI: 36.3 µM
U251 CNS
  TGI: 35.4 µM
XF 498 CNS
  GI50: 6.8 µM
  TGI: 19.2 µM
